Bridge positions count the residues as written; N and C are the ends. Ends that are not written are not given here.
Columns and labels:
swine colonic microbiota = assay: PMA-qPCR counts of bacterial groups in PolyFermS swine colon fermentation model; type: cell-based; conditions: for impact on total bacterial counts: PolyFermS, with Salmonella Newport 10^7 cfu/mL, 0.4 mM MccJ25 or 4 mM reuterin, 24 h
Method: (§1) The in vitro fermentation model of the swine colon has been described elsewhere in detail ([Tanner et al., 2014]) and in our previous study ([Naimi et al., 2020]). […] Seeded with 30% (v/v) swine fecal beads, the inoculum reactor IR (useful volume of 250 mL) was fed fresh nutrient medium continuously (Figure 1A). Effluent from IR was used to continuously inoculate at 10% (v/v) the test reactors TR1 and TR2, which also received 90% (v/v) fresh medium (Figure 1B). The feed rate of the three reactors controlled using peristaltic pumps (model 120U, Watson-Marlow, Falmouth, Cornwall, United Kingdom) was set at 27 mL/h for a mean retention time in IR and TRs of 9 h. For the first 3 days, the IR was run in repeated-batch mode, the medium replaced every 12 h with fresh medium, in order to colonize fecal bead. Continuous feeding was then started, followed by 12 days of stabilization before connection to TR1 and TR2. Continuous culture was split into three periods: stabilization, treatment and wash. Conditions were kept constant in IR to assess the temporal stability of the system without any manipulation during the entire fermentation, while TR1 and TR2 were subjected to treatments for various periods. Between each period, culture was flushed from TR1 and TR2 as described previously ([Tanner et al., 2014]). TR1 and TR2 were subjected to a washing procedure with 10% chlorine solution to decontaminate and remove any historical effect of the previous periods. Briefly, TR1 and TR2 were disconnected from the IR, the entire medium was removed and reactors were filled with 10% freshly prepared chlorine solution. After stirring for 1 h, the reactors were rinsed twice by adding sterile distilled water and stirring for another hour. After complete removal of water and chlorine residues, reactors were filled with sterile fresh nutritive medium and reconnected to the IR. After each flush, they were stabilized for 3 days until a steady state was reached before starting the next treatment period.
The inhibitory activity of MccJ25, reuterin and rifampicin against Salmonella Newport and the major bacterial species constituting the swine colonic microbiota were quantified using propidium-monoazide-coupled quantitative polymerase chain reaction (PMA-qPCR). Samples collected from the reactors were treated with propidium monoazide (PMA dye, Biotium, Inc., Hayward, CA, United States) for viable bacteria counts as described previously ([Fernandez et al., 2016]). […]
The quantitative PCR (qPCR) was performed in MicroAmp® Fast Optical 96-Well Reaction Plates with Barcode (Life Technologies Inc., Burlington, ON, Canada) on an ABI 7500 Real-Time PCR System (Applied Biosystems, Streetsville, ON, Canada). Each sample was analyzed in duplicate. […]

[1] = system: porcine intestinal microbiota; assay: 16S rRNA gene amplicon sequencing of microbiota in PolyFermS model (alpha/beta diversity, taxonomy); type: cell-based, swine; conditions: for change in microbial composition (PCoA of Bray Curtis similarity matrix, PERMANOVA) compared to Salmonella alone: 24 h fermentation, two replicates F1 and F2, 0.4 mM MccJ25, 4 mM reuterin, p value 0.001 for significant differences; for change in microbial composition (PCoA of Bray Curtis similarity matrix, PERMANOVA) compared to Salmonella alone / change in alpha diversity (Shannon index and number of observed ASVs): 0.6 mM rifampicin; for change in alpha diversity (Shannon index and number of observed ASVs): rifampicin effect from the 8-h time point until end of fermentation, 0.4 mM MccJ25, 4 mM reuterin
Method: as §1
The microbial community at different time points along the fermentation was analyzed by Illumina next-generation 16S rRNA gene amplicon sequencing. Taxonomic analysis were assessed by sequencing the bacterial 16S rRNA gene in the V3-V4 region using the amplification primers 341F (5′-CCTACGGGNGGCWGCAG-3′) and 805R (5′-[…]-3′) adapted to incorporate the transposon-based Illumina Nextera adapters (Illumina, United States) and a sample barcode sequence allowing multiplexed sequencing ([García-López et al., 2020]). High-throughput sequencing was performed at the Institute for Integrative Systems Biology (Université Laval, Québec, Canada) on a MiSeq platform using 2 × 300 bp paired-end sequencing (Illumina, United States). The raw sequence data have been submitted to European Nucleotide Archive (ENA) database with accession number PRJEB52762.
Raw data were processed using the DADA2 R package (version 1.14.1) ([Callahan et al., 2016]) to obtain exact amplicon sequence variants (ASVs) using the metabaRpipe R package^1. Briefly, forward and reverse reads were truncated after 260 and 250 nucleotides, respectively. After truncation, reads with expected error rates higher than three and four for forward and reverse reads, respectively, were removed. After filtering, error rate learning, ASV inference and denoising, reads were merged with a minimum overlap of 15 nucleotides. Chimeric sequences were identified and removed. Taxonomy was assigned to ASVs using DADA2 against SILVA database (v138.1) ([Glöckner et al., 2017]). Phylogenetic relatedness of ASVs, alpha diversity (Observed and Shannon indexes) and beta diversity analyses (Bray Curtis similarity matrix) were performed using the phyloseq R package ([McMurdie and Holmes, 2013]) and the DivComAnalyses packages^2.
The rarefied ASV table was used to calculate richness and diversity indices.

Salmonella Newport = conditions: PolyFermS continuous culture simulating swine proximal colon; ref Naimi et al., 2020; cited from earlier work
Text: Microcin J25 (MccJ25) is one of the most studied Gram-negative bacteriocins. This 21-amino-acid posttranslationally modified peptide produced by E. coli is a potent inhibitor of Enterobacteriaceae including Salmonella ([Rintoul et al., 2001]). It is a typical lasso peptide ([Arnison et al., 2013]; [Wang and Zhang, 2018]) which is characterized by an 8-residue macrolactam ring that is closed by an isopeptide bond between the N-terminus and the side chain carboxylate of a glutamate at position 8. The ring is threaded by the resulting tail that is locked inside by two bulky amino acid side chains ... || Enumerating specific bacterial groups by PMA-qPCR provided first a global information on the composition of the swine gut microbial community. Rifampicin induced important changes in Bacteroides, Lactobacillaceae and total 16S rRNA gene contents at the end of the colonic fermentation while no major effects were observed when MccJ25 and reuterin were added separately. […] Taxonomically, rifampici ... || Since MccJ25 appears to be a potent inhibitor of Salmonella Newport in the PolyFermS continuous culture model of the porcine proximal colonic microbiome as shown previously ([Naimi et al., 2020]), it should be considered as a potential alternative to antibiotics in pork production. […] This is important since it has been shown that changes in gut microbiota composition are associated with various metabolic disorders and likely subject the ...

[2] = system: swine colonic microbiota metabolome; assay: LC-MS metabolomic profiling of swine colonic microbiota in PolyFermS model; type: cell-based; conditions: for impact on the metabolome of the swine colonic microbiota (LC-MS profiles, PCA): PolyFermS pellet extracts, 0.4 mM MccJ25, 4 mM reuterin, 0.6 mM rifampicin, MccJ25 effect decreased with time, rifampicin effect increased
Method: as §1
Resulting networks were visualized using Cytoscape 3.7.1.

E. coli = conditions: reuterin 1.3 mM, without affecting other bacterial populations; ref Cleusix et al., 2008; cited from earlier work
Method: Enumerating specific bacterial groups by PMA-qPCR provided first a global information on the composition of the swine gut microbial community. Rifampicin induced important changes in Bacteroides, Lactobacillaceae and total 16S rRNA gene contents at the end of the colonic fermentation while no major effects were observed when MccJ25 and reuterin were added separately. […] Taxonomically, rifampici ...

[3] = cited from earlier work
Text: (§2) Microcin J25 (MccJ25) is one of the most studied Gram-negative bacteriocins. This 21-amino-acid posttranslationally modified peptide produced by E. coli is a potent inhibitor of Enterobacteriaceae including Salmonella ([Rintoul et al., 2001]). It is a typical lasso peptide ([Arnison et al., 2013]; [Wang and Zhang, 2018]) which is characterized by an 8-residue macrolactam ring that is closed by an isopeptide bond between the N-terminus and the side chain carboxylate of a glutamate at position 8. The ring is threaded by the resulting tail that is locked inside by two bulky amino acid side chains ...

weaned pigs = conditions: MccJ25 purity above 99%; ref Yu et al., 2017; cited from earlier work
Text: as §2

E. coli infection = conditions: highly purified MccJ25; ref Yu et al., 2022; cited from earlier work
Text: (§3) The widespread use of antibiotics in livestock production has led to the emergence of antibiotic-multiresistant bacteria, which can infect humans via the food chain. The use of antibiotics as growth promoters has been banned outright in several industrialized countries, which has increased the urgency of the search for alternatives. Researchers began decades ago to propose bacteriocins as substitutes. In addition to their natural origin, being mostly indigenous to the gut microbiota, and their potent inhibitory activity, bacteriocins are most often endowed with a narrow spectrum of antibacteri ...

[4] = system: clinically relevant veterinary multidrug-resistant strains; conditions: highly purified MccJ25; ref Yu et al., 2022; cited from earlier work
Text: as §3

[5] = PolyFermS TR1/TR2, Salmonella Newport 10^7 cfu/mL + 0.6 mM rifampicin, after 12 h, followed by regrowth

Compound	reduction of Bacteroides counts (swine colonic microbiota; [5])	reduction of total cell counts (swine colonic microbiota; [5])	relative abundance of Escherichia-Shigella (ASV002) ([1]; 0.6 mM rifampicin + Salmonella Newport, at 12 h, enriched from the 8-h time point)	taxonomic change at the phylum level ([1]; 0.6 mM rifampicin + Salmonella Newport, from the 6-h time point, both reactors F1 and F2)	change in microbial composition (PCoA of Bray Curtis similarity matrix, PERMANOVA) compared to Salmonella alone [1]	change in alpha diversity (Shannon index and number of observed ASVs) [1]	inhibitory activity against Salmonella Newport (Salmonella Newport)	impact on the metabolome of the swine colonic microbiota (LC-MS profiles, PCA) [2]	change in amino acid levels in microbiota metabolome ([2]; PolyFermS, 0.6 mM rifampicin + Salmonella Newport, extracted ion chromatograms)	impact on total bacterial counts (swine colonic microbiota)	effect on E. coli population (E. coli)	stability to denaturing conditions, high temperatures, extreme pHs and certain proteases [3]	effect of supplemented diet on weaned pigs (weaned pigs)	effect on inflammation (E. coli infection)	bactericidal activity in vitro [4]	metabolomics profile after 24 h treatment ([2]; PolyFermS, 0.4 mM MccJ25 + Salmonella Newport, 24 h)
CO[C@H]1/C=C/O[C@@]2(C)Oc3c(C)c(O)c4c(O)c(c(/C=N/N5CCN(C)CC5)c(O)c4c3C2=O)NC(=O)/C(C)=C\C=C\[C@H](C)[C@H](O)[C@@H](C)[C@@H](O)[C@@H](C)[C@H](OC(C)=O)[C@@H]1C [rifampicin, Rifampicin]	approximately 1 log	approximately 1 log	more than 44%	increase of the relative abundance of Proteobacteria and Firmicutes phyla	significant differences	significant decrease	inhibits Salmonella growth	significant effects	increase in the levels of Leu/Ile, Phe, Tyr and Trp amino acids							
O=CCCO [reuterin, 3-hydroxypropanal]					No significant changes	did not induce a remarkable changes	did not inhibit Salmonella Newport	no impact		did not induce significant impact	significantly and selectively decrease E. coli					
Microcin J25 (GGAGHVPEYFVGIGTPISFYG; lactam N-8; also: lasso macrolactam, places not given here; UniProt Q9X2V7 38-58, looked up) [MccJ25, 21-amino-acid posttranslationally modified lasso peptide bacteriocin produced by E. coli; 8-residue macrolactam ring closed by isopeptide bond to Glu8]					significant differences	did not induce a remarkable changes	remained potent over 24 h			did not induce significant impact		remarkable stability	improve growth performance, and attenuate diarrhea and systematic inflammation	decrease inflammation	efficient bactericidal activity	close to that before treatment

— article PMC9383034, “Impact of microcin J25 on the porcine microbiome in a continuous culture model” (Frontiers in Microbiology, 2022)
